{
  "source": "patent EP0877740B1",
  "about": "“THIOL DERIVATIVES WITH METALLOPEPTIDASE INHIBITORY ACTIVITY” (ZAMBON GROUP S.p.A., priority 1995, dated 1997)",
  "target": "T1, NEP (Rattus norvegicus, UniProt P07861)",
  "T1 sequence (P07861 1-750)": "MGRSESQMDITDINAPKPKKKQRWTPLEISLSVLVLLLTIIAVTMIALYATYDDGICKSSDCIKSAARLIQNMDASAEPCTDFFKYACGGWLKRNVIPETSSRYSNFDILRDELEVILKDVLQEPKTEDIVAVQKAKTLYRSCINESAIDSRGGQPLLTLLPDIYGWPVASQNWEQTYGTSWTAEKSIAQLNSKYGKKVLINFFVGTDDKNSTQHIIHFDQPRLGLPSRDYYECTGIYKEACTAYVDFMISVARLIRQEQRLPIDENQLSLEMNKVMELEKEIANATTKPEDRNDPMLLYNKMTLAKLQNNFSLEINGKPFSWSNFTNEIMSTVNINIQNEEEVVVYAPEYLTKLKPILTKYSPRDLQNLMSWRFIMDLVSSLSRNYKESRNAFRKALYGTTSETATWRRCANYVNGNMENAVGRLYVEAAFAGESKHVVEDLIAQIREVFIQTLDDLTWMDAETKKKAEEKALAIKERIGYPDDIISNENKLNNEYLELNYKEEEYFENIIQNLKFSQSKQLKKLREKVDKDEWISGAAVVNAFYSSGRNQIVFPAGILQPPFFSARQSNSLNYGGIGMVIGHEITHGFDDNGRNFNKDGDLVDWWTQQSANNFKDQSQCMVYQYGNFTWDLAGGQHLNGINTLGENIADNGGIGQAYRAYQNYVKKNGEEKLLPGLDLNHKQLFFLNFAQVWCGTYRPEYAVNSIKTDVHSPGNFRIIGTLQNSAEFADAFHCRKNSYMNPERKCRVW",
  "test": "Ex vivo NEP-inhibitory activity in kidney homogenates of treated SHR (GAAP substrate)",
  "parameters": "After the removal of the kidneys from SHR, the renal tissue was homogenized; from tissue; host or cells: kidney homogenate of spontaneously hypertensive rats (SHR); species or system spontaneously hypertensive rats (SHR)",
  "settings": "rat, SHR kidneys; for inhibition at 30 µmol/kg: oral 30 µmoles/kg",
  "method": "The ex-vivo ACE/NEP-inhibitory activity, in particular, was determined by evaluating the enzymatic activity in tissue homogenates (lung and kidney for ACE and NEP activity, respectively) from spontaneously hypertensive rats (SHR) treated with the tested compounds by intravenous or oral route.\nThe ex vivo NEP-inhibitory activity was evaluated according to the procedure reported in the literature by M. Orlowsky et al., in Biochemistry 1981, 20, 4942-4950.\nThe inhibitory activity of the compounds of formula I was evaluated in kidneys of spontaneously hypertensive rats (SHR), 5 minutes after i.v. injection (0.6 and 21 µmoles/kg) and 30 minutes, 60 minutes and 4 hours after oral administration (30 µmoles/kg) of the tested compounds.\nAfter the removal of the kidneys from SHR, the renal tissue was homogenized and incubated for 15 minutes at 37°C in the presence of Glutaryl-Ala-Ala-Phe-2-naphthylamide (GAAP), as a substrate, and aminopeptidase M at pH 7.6.\nThe reaction was stopped by adding an aqueous solution at 10% of trichloroacetic acid.\nThe released 2-naphthylamine was determined by adding fast garnet dye (2 ml).\nEnzyme reaction rates were determined by measuring the increase in the optical density at 524 nm (OD524) with respect to a standard obtained with 2-naphthylamine complexed with fast garnet.\nThe NEP-inhibitory activity of the tested compounds was expressed as percentage of NEP-inhibition in SHR kidneys.",
  "note": "Where two headings read alike, the source gives them in different places.",
  "data": [
    {"smiles": "O=C(N[C@@H](Cc1ccc(-c2nccs2)cc1)C(=O)O)[C@@H](CS)Cc1ccccc1", "note": "[Compound 16, N-[(2S)-3-mercapto-2-phenylmethylpropionyl]-4-(2-thiazolyl)-L-phenylalanine]", "values": [
      {"measurement": "inhibition at 0.6 µmol/kg", "setting": "iv, i.v. 0.6 µmoles/kg, 5 minutes after injection", "result": 34, "unit": "%"},
      {"measurement": "inhibition at 21 µmol/kg", "setting": "iv, i.v. 21 µmoles/kg, 5 minutes after injection", "result": 49, "unit": "%"},
      {"measurement": "inhibition at 30 µmol/kg", "setting": "30 minutes after administration, read-out: NEP-inhibition (kidneys) 30 minutes", "result": 55, "unit": "%"},
      {"measurement": "inhibition at 30 µmol/kg", "setting": "60 minutes after administration, read-out: NEP-inhibition (kidneys) 60 minutes", "result": 39, "unit": "%"},
      {"measurement": "inhibition at 30 µmol/kg", "setting": "4 hours after administration, read-out: NEP-inhibition (kidneys) 4 hours", "result": 40, "unit": "%"}
    ]}
  ]
}
